Values of other authors as cited in PMC7904743, “WIDOCK: a reactive docking protocol for virtual screening of covalent inhibitors” (Journal of Computer-Aided Molecular Design, 2021).
Read-outs that look alike come from different tables or passages of the source.

Key:
OTUB2 = OTUB2 protein labeling; experimental actives if % labeling higher than 50%; cited from earlier work
NUDT7 = conditions: protein labeling at 200 μM; experimental actives if % labeling higher than 50%; cited from earlier work
[1] = thiol reactivity, cited from earlier work
[2] = natural log of average kinetic rate constant
[3] = natural log of average rate constant

| Compound | OTUB2 % labeling (OTUB2) | NUDT7 % labeling (NUDT7) | ln(avg k) [1, 2] | ln(avg k) [1, 3] |
| --- | --- | --- | --- | --- |
| N#Cc1cccc(CNC(=O)CCl)c1 [PCM-0102936, N#Cc1cccc(CNC(=O)CCl)c1] | 32% | 0% | -16.667 | -16.667 |
| CCOC(=O)C1CCCCN1C(=O)CCl (stereo not shown) [PCM-0102937, CCOC(=O)C1CCCCN1C(=O)CCl] | 13% | 0% | -16.030 | -16.030 |
| COc1ccc(C2CCCN2C(=O)CCl)cc1 (stereo not shown) [PCM-0102938, COc1ccc(C2CCCN2C(=O)CCl)cc1] | 0% | 100% | -15.798 | -15.798 |
| CN(Cc1ccc(F)cc1)C(=O)CCl [PCM-0102939, CN(Cc1ccc(F)cc1)C(=O)CCl] | 10% | 0% | -16.214 | -16.214 |
| O=C(CCl)N1CCOC2CCCCC21 (stereo not shown) [PCM-0102940, O=C(CCl)N1CCOC2CCCCC21] | 0% | 0% | -15.696 | -15.696 |
| CC(C)N(C(=O)CCl)C1CCCCC1 [PCM-0102941, CC(C)N(C(=O)CCl)C1CCCCC1] | 0% | 17% | -16.528 | -16.528 |
| CN(CC12CC3CC(CC(C3)C1)C2)C(=O)CCl [PCM-0102942, CN(CC12CC3CC(CC(C3)C1)C2)C(=O)CCl] | 10% | 26% | -15.698 | -15.698 |
| Cc1nc(C2(NC(=O)CCl)CCCCCC2)no1 [PCM-0102944, Cc1nc(C2(NC(=O)CCl)CCCCCC2)no1] | 0% | 0% | -17.037 | -17.037 |
| CC1CCN(C(=O)CCl)CC1 [PCM-0102945, CC1CCN(C(=O)CCl)CC1] | 0% | 0% | -16.826 | -16.826 |
| N#Cc1ccc(CNC(=O)CCl)cc1 [PCM-0102946, N#Cc1ccc(CNC(=O)CCl)cc1] | 35% | 0% | -16.364 | -16.364 |
| CC(C)N(C(=O)CCl)C1CCCC1 [PCM-0102948, CC(C)N(C(=O)CCl)C1CCCC1] | 0% | 13% | -16.391 | -16.391 |
| Cc1nn(C)c(C)c1NC(=O)CCl [PCM-0102949, Cc1nn(C)c(C)c1NC(=O)CCl] | 0% | 0% | -16.344 | -16.344 |
| O=C(CCl)NCc1ccccn1 [PCM-0102950, O=C(CCl)NCc1ccccn1] | 0% | 0% | -17.514 | -17.514 |
| O=C(CCl)NC1(c2ccc3c(c2)OCCO3)CCCC1 [PCM-0102951, O=C(CCl)NC1(c2ccc3c(c2)OCCO3)CCCC1] | 0% | 100% | -16.488 | -16.488 |
| O=C(CCl)NNC(=O)c1ccc(Cl)cc1 [PCM-0102953, O=C(CCl)NNC(=O)c1ccc(Cl)cc1] | 18% | 0% | -17.321 | -17.321 |
| O=C(CCl)NNC(=O)c1ccccc1Cl [PCM-0102954, O=C(CCl)NNC(=O)c1ccccc1Cl] | 80% | 0% | -17.060 | -17.060 |
| Cc1ccc(NC(=O)CCl)cc1Br [PCM-0102955, Cc1ccc(NC(=O)CCl)cc1Br] | 14% | 27% | -16.336 | -16.336 |
| O=C(Nc1ccccc1)NN(C(=O)CCl)c1ccccc1 [PCM-0102957, O=C(Nc1ccccc1)NN(C(=O)CCl)c1ccccc1] | 0% | 100% | -15.066 | -15.066 |
| CN(Cc1ccc2c(c1)OCCO2)C(=O)CCl [PCM-0102958, CN(Cc1ccc2c(c1)OCCO2)C(=O)CCl] | 9% | 27% | -16.177 | -16.177 |
| Cc1ccc(CNC(=O)CCl)cc1F [PCM-0102959, Cc1ccc(CNC(=O)CCl)cc1F] | 50% | 0% | -16.344 | -16.344 |
| Cc1ccc(C(=O)N2CCN(C(=O)CCl)CC2)cc1 [PCM-0102962, Cc1ccc(C(=O)N2CCN(C(=O)CCl)CC2)cc1] | 0% | 0% | -15.309 | -15.309 |
| CC(=O)c1cccc(NC(=O)CCl)c1 [PCM-0102965, CC(=O)c1cccc(NC(=O)CCl)c1] | 36% | 0% | -15.751 | -15.751 |

| Compound | OTUB2 % labeling (OTUB2) | NUDT7 % labeling (NUDT7) | ln(avg k) [1, 2] | ln(avg k) [1, 3] |
| --- | --- | --- | --- | --- |
| Cc1sc(NC(=O)CCl)c(C)c1C [PCM-0102968, Cc1sc(NC(=O)CCl)c(C)c1C] | 0% | 0% | -16.020 | -16.020 |
| CS(C)(=O)=NC(=O)CCl [PCM-0102969, CS(C)(=O)=NC(=O)CCl] | 0% | 0% | -15.757 | -15.757 |
| O=C(CCl)N1CCN(C(=O)C2CC2)CC1 [PCM-0102970, O=C(CCl)N1CCN(C(=O)C2CC2)CC1] | 0% | 7% | -15.304 | -15.304 |
| CC(c1cc2ccccc2o1)N(C)C(=O)CCl (stereo not shown) [PCM-0102971, CC(c1cc2ccccc2o1)N(C)C(=O)CCl] | 0% | 66% | -16.092 | -16.092 |
| O=C(CCl)N1CCC(C(=O)N2CCCCC2)CC1 [PCM-0102972, O=C(CCl)N1CCC(C(=O)N2CCCCC2)CC1] | 8% | 0% | -15.512 | -15.512 |
| Cc1ccc(CNC(=O)CCl)s1 [PCM-0102973, Cc1ccc(CNC(=O)CCl)s1] | 75% | 11% | -16.818 | -16.818 |
| CC(C)N(C)C(=O)C1CCN(C(=O)CCl)CC1 [PCM-0102974, CC(C)N(C)C(=O)C1CCN(C(=O)CCl)CC1] | 0% | 0% | -15.247 | -15.247 |
| COC(=O)c1cccc(NC(=O)CCl)n1 [PCM-0102977, COC(=O)c1cccc(NC(=O)CCl)n1] | 0% | 0% | -16.790 | -16.790 |
| COC(=O)C1CCN(C(=O)CCl)CC1 [PCM-0102978, COC(=O)C1CCN(C(=O)CCl)CC1] | 0% | 0% | -16.559 | -16.559 |
| CCN(C(=O)CCl)c1ccccc1C [PCM-0102980, CCN(C(=O)CCl)c1ccccc1C] | 0% | 43% | -16.814 | -16.814 |
| CC(C)(C)OC(=O)CNC(=O)CCl [PCM-0102981, CC(C)(C)OC(=O)CNC(=O)CCl] | 0% | 0% | -17.661 | -17.661 |
| Cc1nc(C2(NC(=O)CCl)CCCCC2)no1 [PCM-0102983, Cc1nc(C2(NC(=O)CCl)CCCCC2)no1] | 0% | 10% | -17.277 | -17.277 |
| CN(Cc1ccccc1)C(=O)CCl [PCM-0102984, CN(Cc1ccccc1)C(=O)CCl] | 0% | 11% | -16.386 | -16.386 |
| O=C(CCl)NNC(=O)c1ccco1 [PCM-0102985, O=C(CCl)NNC(=O)c1ccco1] | 27% | 0% | -17.545 | -17.545 |
| CN(Cc1cccc(C(F)(F)F)c1)C(=O)CCl [PCM-0102987, CN(Cc1cccc(C(F)(F)F)c1)C(=O)CCl] | 0% | 9% | -15.786 | -15.786 |
| CN(Cc1nc2ccccc2s1)C(=O)CCl [PCM-0102988, CN(Cc1nc2ccccc2s1)C(=O)CCl] | 0% | 30% | -15.687 | -15.687 |
| O=C(CCl)Nc1ccc(Br)cc1 [PCM-0102992, O=C(CCl)Nc1ccc(Br)cc1] | 8% | 11% | -15.800 | -15.800 |
| N#CC1(NC(=O)CCl)CCCCC1 [PCM-0102993, N#CC1(NC(=O)CCl)CCCCC1] | 0% | 8% | -16.137 | -16.137 |
| Cc1cc(C)c(NC(=O)CCl)c(Cl)c1 [PCM-0102994, Cc1cc(C)c(NC(=O)CCl)c(Cl)c1] | 0% | 26% | -16.989 | -16.989 |
| O=C(CCl)N1CCN(C(=O)C2COc3ccccc3O2)CC1 (stereo not shown) [PCM-0102996, O=C(CCl)N1CCN(C(=O)C2COc3ccccc3O2)CC1] | 13% | 0% | -15.549 | -15.549 |
| O=C(CCl)NNC(=O)CC1CCS(=O)(=O)C1 (stereo not shown) [PCM-0102998, O=C(CCl)NNC(=O)CC1CCS(=O)(=O)C1] | 69% | 0% | -16.898 | -16.898 |
